Assay results from patent US9457044B2, “Methods and compositions for wound healing” (CoDa Therapeutics, Inc., priority 2006, dated 2016).

Experiments:
Swiss 3T3 fibroblasts = experiment: Cell migration assay by wounding (fibroblast scrape wound assay); type: cell-based; details: 20 μM for two hours before scrape wound; 4 hours after wounding
Protocol: Swiss 3T3 fibroblasts were grown in Dulbecco's modified Eagle's medium (DMEM; Gibco) supplemented with 10% fetal calf serum (Labtech) and 1% penicillinstreptomycin solution (Sigma, Poole) in a 5% CO2 incubator at 37° C. Unless otherwise stated, the cells were maintained in this medium for most experiments. The cells were passaged by trypsinization and used at passages 6-10 at a confluency of Z 90%. Cells were plated on 13 mm glass coverslips in 24-well dishes (Nunc) with 4−5×10^5 cells per well containing 1 ml of medium. Cells reached confluency after 72 hours and were then used for experimentation.
The fibroblast cell assay involved creating a “wound” in a confluent monolayer of fibroblast cells. This widely used in vitro technique mimics the behaviour of migrating cells in vivo (Lampugnani, M. G. (1999) Cell Migration into a wounded area in vitro. Methods Mol Biol 96: 177-182). Wounding was performed by drawing a microelectrode across the coverslip, producing a lesion of standard width. Phase contrast images were acquired using a ×5 objective on a Zeiss inverted microscope with an incubation chamber at 370 and 5% CO2. […] Migration was quantified by image analysis, measuring the change in wound area (pixels) using Image J software (NIH). […]

myofibroblasts = experiment: Anti-α smooth muscle actin staining of myofibroblasts in granulation tissue; type: in vivo, mice
Protocol: (§1) Male, 8 week old, ICR mice were used in the following experiments. All the mice were kept under specific pathogen-free conditions in an environmentally controlled clean room at University College London and all the experiments were carried out under UK Home Office regulations. Mice were anaesthetized by halothane inhalation. Four full-thickness excisional wounds of 6 mm diameter were made on the shaved back on either side of the dorsal midline with a 6 mm biopsy punch (Kai Industries). To each pair of wounds a single topical application of 50 μl of 1 μM Cx43 as ODN (SEQ. ID No. 2) (Sigma-Genosys) in 30% Pluronic F-127 gel (Sigma-Aldrich), chilled on ice, was made to one wound, and an identical application of 1 μM sense control sODNs was made to the other. […] R. and Becker, D. L. (2003). Targeting connexin 43 expression accelerates the rate of wound repair. Curr Biol 13, 1697-703). Each wound region was digitally photographed at the indicated time intervals, and the areas of the wounds were calculated. All wound areas were expressed as percentages of the initial wound areas. In some series of experiments, wounds and their surrounding area, including the scab and epithelial margins, were harvested with an 8 mm biopsy punch (Kai Industries) at the indicated time intervals after mice were killed with an overdose of chloroform. A minimum of eight mice were used for each time point examined.
Immunostaining for connexin 43, blood vessels or a smooth muscle actin was carried out on cryostat sections of wounds. Sections were fixed in acetone at 4° C. for 5 minutes prior to blocking for 45 minutes. Incubation in primary antibody was for one hour at the following dilutions: rabbit anti-Cx43 (Sigma) 1:3,000; isoLectin B_FITC 1:2000; von Willebrand Factor (rabbit Dako) 1:400; anti-α smooth muscle actin (Sigma) 1:400 at room temperature. […]
(§2) A treatment-blinded observer counted MPO-positive neutrophils and F4/80-positive macrophages in the wound bed (defined as the area surrounded by unwounded skin, fascia, regenerated epidermis, and eschar) in 3 random high-power fields of 0.332 mm^2. BrdU-positive cells in the wound margin and the nascent epidermis regions of each immunohistochemically stained section were counted as described previously and expressed per […] of epidermis (Mori, R., Kondo, T., Nishie, T., Ohshima, T. and Asano, M. (2004). Impairment of skin wound healing in beta-1,4-galactosyltransferase-deficient mice with reduced leukocyte recruitment. Am J Pathol 164, 1303-14). Number of fibroblast like cells (phalloidin-positive cells with spindle-shape body) at the wound margin were counted in high-power fields also (each field was 0.332 mm^2). […] Images were made binary at a standard threshold and positive pixels were counted using Image J (NIH Image).

BrdU-positive cells = experiment: BrdU labeling of proliferating cells at wound sites; type: in vivo, mice
Protocol: as §1
In another experiment, wounded mice were injected intraperitoneally with 1 ml of BrdU (Sigma) in PBS solution (1 mg/ml) 2 hours before harvesting on days 1, 2, and 7. Wound tissues were fixed in 4% formaldehyde buffered with PBS, and embedded in paraffin. Deparaffinized sections (6 μm thick) were treated with a HistoMouse™-Plus Kit (ZYMED Laboratories, Inc) to reduce background signals according to manufacturer's instructions. […]
as §2

GTAATTGCGGCAGGAGGAATTGTTTCTGTC (antisense GTAATTGCGGCAGGAGGAATTGTTTCTGTC; in Pluronic F-127 gel, further chemistry not given here) [Cx43 asODN]
rate of wound closure in fibroblast cultures compared to controls (Swiss 3T3 fibroblasts): significantly (P=0.02) enhanced
SMA staining at the edges of the granulation tissue (myofibroblasts; 10 days after wounding, P=0.000002 versus control): most of the staining for SMA had gone
SMA staining (myofibroblasts; day 5, no staining in control wounds): could be detected at the edges of the granulation tissue
SMA staining at the edges of the granulation tissue, quantified (myofibroblasts; day 7, P=0.004 versus control): significantly higher
advance over controls in maturation of granulation tissue (myofibroblasts; mouse, in vivo): 2 to 3 days
keratinocyte proliferation in the epidermal wound margin, control versus treated (BrdU-positive cells; FIG. 2E): little difference
BrdU-positive cells in the dermal wound margin (BrdU-positive cells; FIG. 2G): slightly more cells
BrdU-positive cells in the nascent epidermis (BrdU-positive cells; after both 2 days and 7 days): significantly increased numbers
BrdU-positive cells in the granulation tissue (BrdU-positive cells; days 1 and 2): significantly more
